Data published in US10828315B2 (Madrigal Pharmaceuticals, Inc., priority 2013, dated 2020).

Key:
[1] = Metabolite profiling and identification; type: in vitro ADME; parameters: key: —: Not detected; settings: for Metabolite Glucuronidation: M+1 569.3; for Metabolite Hydroxylation + glucuronidatiom: M+1 585.3
Description: Metabolite Profiling and Identification: Metabolite profiling/identification for SDC-TRAP-0063 (M+1:880.3)

[2] = test system: human urinary bladder cancer cell line SW780; test: Cytotoxicity assay (CellTiter-Glo, 72 h), SW780; type: cell-based; settings: SW780, 72 hours, read-out: Cytotoxicity (IC50, nM) SW-780
Description: (§1) Cytotoxicity of SDC-TRAP molecules was determined in three cancer cell lines. […] 80 μL of CellTiter-Glo was added to each well, followed by room temperature incubation in the dark for 15 minutes. Cell was determined by luminescence. IC50 was calculated using XLfit™ software.

[3] = Mouse plasma stability protocol, up to 1 h (Examples 16-18); settings: for % Remaining (1 h): % Remaining of parent after 1 h incubation in mouse plasma at 37° C. (10 μM); for Peak Area Ratio: SDC-TRAP-0063 incubated in mouse plasma; for Mouse (10 μM) % Remaining 1 h (37° C.)* / % Remaining (1 h, 37° C.): mouse plasma; for Mouse (10 μM) % Remaining 1 h (37° C.)*: sum of both peaks
Description: 150 ng/mL solution of SDC-TRAP-0002 in methanol was prepared using the internal standard spiking solution. This solution was used to precipitate all plasma samples in the study. 200 μL was pipetted into a 96 deepwell plate over dry ice. 10 μL of 1 mM stock in DMSO was added to a 1.5 mL microfuge tube, then 990 μL of plasma. Samples were mixed by vortex, then 50 μL of each sample was added in triplicate to a 96-well plate containing internal standard solution. This was designated the 0 hour time point sample. 250 μL of the remaining plasma sample was added to each of four 96 deepwell plates—one per time point. Samples were incubated at 37° C. with gentle shaking for 0.25, 0.5, and 1 hour. After each time point, one plate of each sample was removed from the shaker and placed on wet ice for approximately 2 minutes. 50 μL at plasma aliquots (in triplicate) were added to the deepwell plate containing internal standard solution. After the last time point was extracted, the 96 deepwell plate was vortexed, then centrifuged at 2-8° C. 150 μL of supernatant was collected and 25 μL at of water was added. Samples were mixed and analyzed by LC-MS/MS.
990 μL mouse plasma aliquots from a common stock were spiked with 10 μL of 1 mM stock of one of seven SDC-TRAP samples identified in the table below. Each sample was mixed and divided into 250 μL aliquots, each representing time points 0, 15 minutes, 30 minutes or 1 hour. At the prescribed time point, 3×50 μL samples were each mixed with 200 μL of methanol containing internal standard and held on dry ice until all time point samples were extracted. The samples collectively were vortex mixed for 1.5 minutes at 1500 rpm, then centrifuged at 4400 rpm for 10 minutes at 8° C.

[4] = test system: human urinary bladder cancer cell line RT-112; test: Cytotoxicity assay (CellTiter-Glo, 72 h), RT-112; type: cell-based; settings: RT-112, 72 hours, read-out: Cytotoxicity (IC50, nM) RT-112
Description: as §1

[5] = Artificial membrane permeability assay (PAMPA)
Description: Pre-coated PAMPA plates were warmed to room temperature for at least 30 minutes prior to adding assay components.
Stock solutions were prepared with the SDC-TRAP molecules to be tested. In order to make a working solution, either 50 μL of 100 μM Stock in DMSO+950 μL of PBS or 50 μL of 200 μM stock was added to 96 deep well plate, resulting in a 5 μM final concentration or a 10 μM final concentration, respectively. 3000 μL of the working solution containing each compound to be tested was added to the appropriate well of a donor PAMPA plate. 200 μL of PBS was added into the corresponding wells of an acceptor PAMPA plates.
The acceptor plate was lowered onto the donor plate and allowed to incubate for five hours. After five hours, a 50 μL aliquot was removed from each well of each plate and added into a new 96 deep-well plate.
100 μL of methanol containing an internal standard was added to each aliquot and analyzed by LC/MS.
In order to calculate the permeability for each SDC-TRAP molecule and the control molecules, the following formula was used:

[6] = Stability in cell culture media (Example 18); settings: for Media (5 μM) % Remaining 1 h (37° C.)*: sum of both peaks
Description: 98 μL of DMEM+10% FBS, +1% P/S, +1.5 g/L sodium bicarbonate cell culture media was mixed with 2 μL of DMSO and aliquotted into 96-well plates at 250 μL per 0, 1, 2, and 18 hour time point.
3×50 μL media samples in 96 were held in 96-well plates at −80° C. until the last time point was extracted. 200 μL of methanol containing IS was added and mixed by vortex at 1500 rpm for 1.5 minutes at room temperature. The samples were centrifuged at 4400 rpm for 10 minutes at 8° C.

[7] = mouse, in vivo
[8] = test system: human breast cancer cell line BT-474; test: Cytotoxicity assay (CellTiter-Glo, 72 h), BT-474; type: cell-based; settings: BT-474, 72 hours, read-out: Cytotoxicity (IC50, nM) BT-474
Description: as §1

[9] = test system: HER2; test: HER2 degradation in BT-474 cells (Example 3, Methods 1 and 2); type: cell-based, human
Description: This example illustrates how a HER2 degradation assay may be used as a test to determine and select Hsp90-targeting moieties suitable for use in SDC-TRAPs of the invention, and further illustrates the ability of SDC-TRAPs to target cells preferentially expressing Hsp90. Such a test may further be used to determine the Hsp90 binding ability of SDC-TRAPs of the invention, as well as through competitive binding assays and cell-based Hsp90 client protein degradation assays known in the art.
After treatment, each cytoplasmic sample is prepared from 1×10^6 cells by incubation of cell lysis buffer (#9803, Cell Signaling Technology) on ice for 10 minutes. The resulting supernatant used as the cytosol fractions is dissolved with sample buffer for SDS-PAGE and run on a SDS-PAGE gel, blotted onto a nitrocellulose membrane by using semi-dry transfer. Non-specific binding to nitrocellulose is blocked with 5% skim milk in TBS with 0.5% Tween at room temperature for 1 hour, then probed with anti-HER2/ErB2 mAb (rabbit IgG, #2242, Cell Signaling) and anti-Tubulin (T9026, Sigma) as housekeeping control protein. HRP-conjugated goat anti-rabbit IgG (H+L) and HRP-conjugated horse anti-mouse IgG (H+L) are used as secondary Ab (#7074#7076, Cell Signaling) and LumiGLO reagent, 20× Peroxide (#7003, Cell Signaling) is used for visualization. The Hsp90 client protein HER2 is degraded when cells are treated with Hsp90-targeting moieties or SDC-TRAPs of the invention.
BT-474 cells are plated in the interior 60 wells of a 96 well black clear bottom plate (20,000 cells/well) in DMEM medium, with DMEM media in the surrounding 36 wells, and incubated at 37° C. with 5% CO2 overnight. On the second day, concentration response curve source plates are produced (10 point, 3-fold dilution of compounds in DMSO) followed by a 1:30 dilution in an intermediate dilution plate containing DMEM. Compound is transferred from the intermediate plate to the cell plate at a dilution of 1:10. The cells are then incubated at 37° C. with 5% CO2 for 24 hours.
Cells are then fixed in 4% phosphate-buffered paraformaldehyde for 30 minutes at room temperature and then permeabilized by washing five times with 0.1% Triton X-100 in PBS for 5 minutes at room temperature on a shaker. […] Cells are washed five times with 0.1% Tween-20 in PBS for 5 minutes at room temperature on a shaker and incubated with fluorescently-labeled secondary antibody (LI-COR, #926-32211) diluted 1:1000 in blocking buffer, and DRAQ5 nuclear stain (Biostatus Limited, # DRAQ5) diluted 1:10,000, at room temperature on a shaker for 1 hour. Cells are washed 5 times with 0.1% Tween-20 in PBS for 5 minutes at room temperature on a shaker and imaged on a LI-COR Odyssey imaging station. The raw data is normalized to DRAQ5 and the HER2 EC50 is calculated using XLfit™.

[10] = test system: HER2; test: HER2 degradation assay with BT-474 cell line (Example 12, FACS); type: cell-based, human

SMILES: CCc1c2c(nc3ccc(O)cc13)-c1cc3c(c(=O)n1C2)COC(=O)[C@]3(O)CC [SN-38, reference compound]
- Metabolite Glucuronidation ([1]; Hepatocytes Dog): √
- Metabolite Hydroxylation + glucuronidatiom ([1]; Hepatocytes Dog): —
- Metabolite Glucuronidation ([1]; Hepatocytes Human): √
- Metabolite Hydroxylation + glucuronidatiom ([1]; Hepatocytes Human): √
- Metabolite Glucuronidation ([1]; Hepatocytes Monkey): √
- Metabolite Hydroxylation + glucuronidatiom ([1]; Hepatocytes Monkey): √
- Metabolite Glucuronidation ([1]; Hepatocytes Mouse): √
- Metabolite Hydroxylation + glucuronidatiom ([1]; Hepatocytes Mouse): —
- Metabolite Glucuronidation ([1]; Hepatocytes Rat): √
- Metabolite Hydroxylation + glucuronidatiom ([1]; Hepatocytes Rat): —
- IC50 [2]: 38 nM
- % Remaining (1 h) [3]: 63.5%
- Peak Area Ratio ([3]; 0 h): 0.0616
- Peak Area Ratio ([3]; 0.5 h): 4.13
- Peak Area Ratio ([3]; 1 h): 4.46
- Peak Area Ratio ([3]; […]): 1.37
- Mouse (10 μM) % Remaining 1 h (37° C.)* [3]: 64%
- IC50 [4]: < 10 nM
- Mass Retention ([5]; incubation 5 h, first table): 38.2%
- Mass Retention ([5]; same protocol, second table): 46.6%
- Media (5 μM) % Remaining 19 h (37° C.) [6]: 52%
- Media (5 μM) % Remaining 1 h (37° C.)* [6]: 82%
- Plasma Conc. [7]: BQL
- Tumor Conc. [7]: BQL
- IC50 [8]: > 10000 nM

SMILES: CCc1c2c(nc3ccc(O)cc13)-c1cc3c(c(=O)n1C2)COC(=O)C3(CC)OC(=O)N1CCN(Cc2ccc(-n3c(O)nnc3-c3cc(C(C)C)c(O)cc3O)cc2)CC1 (stereo not drawn) [SDC-TRAP-0047, 4,11-diethyl-9-hydroxy-3,14-dioxo-3,4,12,14-tetrahydro-1H-pyrano[3′,4′:6,7]indolizino[1,2-b]quinolin-4-yl 4-(4-(3-(2,4-dihydroxy-5-isopropylphenyl)-5-hydroxy-4H-1,2,4-triazol-4-yl)benzyl)piperazine-1-carboxylate]
- % Remaining (1 h) [3]: 88.9%
- % Remaining (1 h, 37° C.) ([3]; 1 h): 89%
- IC50 [9]: 875 nM
- IC50 [10]: 875 nM

SMILES: CC(C)c1cc(-c2nnc(O)n2-c2ccc3c(ccn3CCN(C)C(=O)CCCc3nc4cc(N(CCCl)CCCl)ccc4n3C)c2)c(O)cc1O [SDC-TRAP-0039, (5-(bis(2-chloroethyl)amino)-1-methyl-1H-benzo[d]imidazol-2-yl)-N-(2-(5-(3-(2,4-dihydroxy-5-isopropylphenyl)-5-hydroxy-4H-1,2,4-triazol-4-yl)-1H-indol-1-yl)ethyl)-N-methylbutanamide]
- IC50 [9]: 2940 nM
- IC50 ([10]; BT-474 cells, overnight): 2920 nM

SMILES: CCc1c2c(nc3ccc(OC(=O)N4CCC(Cc5ccc(-n6c(O)nnc6-c6cc(C(C)C)c(O)cc6O)cc5)CC4)cc13)-c1cc3c(c(=O)n1C2)COC(=O)C3(O)CC (stereo not drawn) [SDC-TRAP-0031, 4,11-diethyl-4-hydroxy-3,14-dioxo-3,4,12,14-tetrahydro-1H-pyrano[3′,4′:6,7]indolizino[1,2-b]quinolin-9-yl 4-(4-(3-(2,4-dihydroxy-5-isopropylphenyl)-5-hydroxy-4H-1,2,4-triazol-4-yl)benzyl)piperidine-1-carboxylate]
- IC50 [9]: 2920 nM
- IC50 [10]: 1270 nM

SMILES: CCc1c2c(nc3ccc(O)cc13)-c1cc3c(c(=O)n1C2)COC(=O)C3(CC)OC(=O)N(C)CCn1ccc2cc(-n3c(O)nnc3-c3cc(C(C)C)c(O)cc3O)ccc21 (stereo not drawn) [SDC-TRAP-0038, 4,11-diethyl-9-hydroxy-3,14-dioxo-3,4,12,14-tetrahydro-1H-pyrano[3′,4′:6,7]indolizino[1,2-b]quinolin-4-yl (2-(5-(3-(2,4-dihydroxy-5-isopropylphenyl)-5-hydroxy-4H-1,2,4-triazol-4-yl)-1H-indol-1-yl)ethyl)(methyl)carbamate]
- IC50 [9]: > 5000 nM
- IC50 [10]: > 5000 nM

SMILES: CCc1c2c(nc3ccc(OC(=O)N(C)CCCCN4CCN(Cc5ccc(-n6c(O)nnc6-c6cc(C(C)C)c(O)cc6O)cc5)CC4)cc13)-c1cc3c(c(=O)n1C2)COC(=O)C3(O)CC (stereo not drawn) [SDC-TRAP-0044, 4,11-diethyl-4-hydroxy-3,14-dioxo-3,4,12,14-tetrahydro-1H-pyrano[3′,4′:6,7]indolizino[1,2-b]quinolin-9-yl (4-(4-(4-(3-(2,4-dihydroxy-5-isopropylphenyl)-5-hydroxy-4H-1,2,4-triazol-4-yl)benzyl)piperazin-1-yl)butyl)(methyl)carbamate]
- % Remaining (1 h) [3]: 60.6%
- % Remaining (1 h, 37° C.) ([3]; 1 h): 61%
- Mouse (10 μM) % Remaining 1 h (37° C.)* [3]: 61%
- IC50 [9]: 602 nM
- IC50 [10]: 602 nM
- Media (5 μM) % Remaining 19 h (37° C.) [6]: 41%
- Media (5 μM) % Remaining 1 h (37° C.)* [6]: 50%

SMILES: CCc1c2c(nc3ccc(O)cc13)-c1cc3c(c(=O)n1C2)COC(=O)C3(CC)OC(=O)CCC(=O)N1CCN(Cc2ccc(-n3c(O)nnc3-c3cc(C(C)C)c(O)cc3O)cc2)CC1 (stereo not drawn) [SDC-TRAP-0043, 4,11-diethyl-9-hydroxy-3,14-dioxo-3,4,12,14-tetrahydro-1H-pyrano[3′,4′:6,7]indolizino[1,2-b]quinolin-4-yl 4-(4-(4-(3-(2,4-dihydroxy-5-isopropylphenyl)-5-hydroxy-4H-1,2,4-triazol-4-yl)benzyl)piperazin-1-yl)-4-oxobutanoate]
- IC50 [9]: 2140 nM
- IC50 [10]: 2140 nM

SMILES: CCc1c2c(nc3ccc(O)cc13)-c1cc3c(c(=O)n1C2)COC(=O)C3(CC)OC(=O)CCC(=O)N1CCC(Cc2ccc(-n3c(O)nnc3-c3cc(C(C)C)c(O)cc3O)cc2)CC1 (stereo not drawn) [SDC-TRAP-0042, 4,11-diethyl-9-hydroxy-3,14-dioxo-3,4,12,14-tetrahydro-1H-pyrano[3′,4′:6,7]indolizino[1,2-b]quinolin-4-yl 4-(4-(4-(3-(2,4-dihydroxy-5-isopropylphenyl)-5-hydroxy-4H-1,2,4-triazol-4-yl)benzyl)piperidin-1-yl)-4-oxobutanoate]
- % Remaining (1 h) [3]: 73.9%
- % Remaining (1 h, 37° C.) ([3]; 1 h): 74%
- IC50 [9]: 1060 nM
- IC50 [10]: 1060 nM

SMILES: CC(C)c1cc(-c2nnc(O)n2-c2ccc3c(ccn3CCOCCN(C)C(=O)CCCc3nc4cc(N(CCCl)CCCl)ccc4n3C)c2)c(O)cc1O [SDC-TRAP-0040, 4-(5-(bis(2-chloroethyl)amino)-1-methyl-1H-benzo[d]imidazol-2-yl)-N-(2-(2-(5-(3-(2,4-dihydroxy-5-isopropylphenyl)-5-hydroxy-4H-1,2,4-triazol-4-yl)-1H-indol-1-yl)ethoxy)ethyl)-N-methylbutanamide]
- IC50 [9]: 4740 nM
- IC50 ([10]; BT-474 cells, overnight): 4740 nM

SMILES: CCc1c2c(nc3ccc(O)cc13)-c1cc3c(c(=O)n1C2)COC(=O)C3(CC)OC(=O)N(C)CCOCCn1ccc2cc(-n3c(O)nnc3-c3cc(C(C)C)c(O)cc3O)ccc21 (stereo not drawn) [SDC-TRAP-0037, 4,11-diethyl-9-hydroxy-3,14-dioxo-3,4,12,14-tetrahydro-1H-pyrano[3′,4′:6,7]indolizino[1,2-b]quinolin-4-yl (2-(2-(5-(3-(2,4-dihydroxy-5-isopropylphenyl)-5-hydroxy-4H-1,2,4-triazol-4-yl)-1H-indol-1-yl)ethoxy)ethyl)(methyl)carbamate]
- % Remaining (1 h) [3]: 95.3%
- % Remaining (1 h, 37° C.) ([3]; 1 h): 95%
- Mouse (10 μM) % Remaining 1 h (37° C.)* [3]: 95%
- IC50 [9]: 2110 nM
- IC50 [10]: 2110 nM
- Media (5 μM) % Remaining 19 h (37° C.) [6]: 6%
- Media (5 μM) % Remaining 1 h (37° C.)* [6]: 67%
